Values joined by “and” are separate entries in the source; they are usually repeats but may differ in a detail not shown here. Equal values may be shown once. Inconclusive results and toxic doses are left out. Cut-off read from the data, not from the text of the source: active = T/C of 150% or more; inactive = T/C below 125%.
Tested on: L1210 leukemia ip in BDF1 mice, survival T/C
Assay: NCI In Vivo Anticancer Drug Screen. Data for tumor model L1210 Leukemia (intraperitoneal) in B6D2F1 (BDF1) mice
Conditions: endpoint: mean survival time, higher = longer survival
Method in brief: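 Tumor cells were implanted, animals were treated, and survival was followed. The result divides the treated measurement by the vehicle-control measurement.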

[1] = dose: 100.0 mg/kg/injection, schedule: Q01DX001 (ip), vehicle: saline
[2] = dose: 200.0 mg/kg/injection, schedule: Q01DX001 (ip), vehicle: saline
[3] = dose: 400.0 mg/kg/injection, schedule: Q01DX001 (ip), vehicle: saline
[4] = dose: 100.0 mg/kg/injection, schedule: Q04DX003 (ip), vehicle: saline
[5] = dose: 200.0 mg/kg/injection, schedule: Q04DX003 (ip), vehicle: saline
[6] = dose: 400.0 mg/kg/injection, schedule: Q04DX003 (ip), vehicle: saline
[7] = dose: 100.0 mg/kg/injection, schedule: Q01DX009 (ip), vehicle: saline with Tween-80
[8] = dose: 200.0 mg/kg/injection, schedule: Q01DX009 (ip), vehicle: saline with Tween-80
[9] = dose: 50.0 mg/kg/injection, schedule: Q01DX001 (ip), vehicle: other
[10] = dose: 100.0 mg/kg/injection, schedule: Q01DX001 (ip), vehicle: other
[11] = dose: 200.0 mg/kg/injection, schedule: Q01DX001 (ip), vehicle: other
[12] = dose: 400.0 mg/kg/injection, schedule: Q01DX001 (ip), vehicle: other
[13] = dose: 100.0 mg/kg/injection, schedule: Q04DX003 (ip), vehicle: saline with Tween-80
[14] = dose: 200.0 mg/kg/injection, schedule: Q04DX003 (ip), vehicle: saline with Tween-80
[15] = dose: 400.0 mg/kg/injection, schedule: Q04DX003 (ip), vehicle: saline with Tween-80
[16] = dose: 100.0 mg/kg/injection, schedule: Q01DX009 (ip), vehicle: saline
[17] = dose: 200.0 mg/kg/injection, schedule: Q01DX009 (ip), vehicle: saline

Measured: T/C

C=C=CCCCC
inactive: dose: 75.0 mg/kg/injection, schedule: Q01DX001 (ip), vehicle: saline 101 % of control | dose: 75.0 mg/kg/injection, schedule: Q04DX003 (ip), vehicle: saline 112 % of control | dose: 150.0 mg/kg/injection, schedule: Q01DX001 (ip), vehicle: saline 111 % of control | dose: 150.0 mg/kg/injection, schedule: Q04DX003 (ip), vehicle: saline 104 % of control | dose: 300.0 mg/kg/injection, schedule: Q01DX001 (ip), vehicle: saline 102 % of control | dose: 300.0 mg/kg/injection, schedule: Q04DX003 (ip), vehicle: saline 101 % of control

Cc1cc[n+](Cc2ccccc2)cc1
inactive: dose: 12.5 mg/kg/injection, schedule: Q04DX003 (ip), vehicle: saline 96 % of control | dose: 25.0 mg/kg/injection, schedule: Q04DX003 (ip), vehicle: saline 90 % of control

Cc1c2ccccc2nc2ccccc12
inactive: [1] 106 % of control | [2] 98 % of control | [3] 101 % of control

Clc1ccc(/C=N\c2nn[nH]n2)c(Cl)c1 (tested in a mixture with another compound)
inactive: [4] 89 % of control | [5] 89 % of control | [6] 98 % of control

CCCCCCCCC1SC1CCCCCCCCOC(=O)CCCCCCCC1SC1CCCCCCCC (stereo unspecified)
inactive: [7] 101 % of control | [8] 93 % of control | dose: 400.0 mg/kg/injection, schedule: Q01DX009 (ip), vehicle: saline with Tween-80 91 % of control

O=S1(=O)c2ccccc2Oc2ccccc21
inactive: [9] 93 % of control | [10] 93 % of control | [11] 100 % of control | [12] 96 % of control

Clc1ccccc1N=C1NN(c2c3ccccc3nc3ccccc23)Nc2ccccc21
inactive: dose: 100.0 mg/kg/injection, schedule: Q04DX003 (ip), vehicle: acetone 94 % of control | dose: 200.0 mg/kg/injection, schedule: Q04DX003 (ip), vehicle: acetone 90 % of control | dose: 400.0 mg/kg/injection, schedule: Q04DX003 (ip), vehicle: acetone 87 % of control

CNC(=O)Nc1ccc(S(=O)(=O)Nc2nc(C)cc(C)n2)cc1
inactive: dose: 50.0 mg/kg/injection, schedule: Q01DX009 (ip), vehicle: saline with Tween-80 96 % of control | [7] 96 % of control | [8] 93 % of control

CCOc1ncnc2c1ncn2-c1cccc(C)c1
inactive: dose: 50.0 mg/kg/injection, schedule: Q01DX001 (ip), vehicle: carboxymethylcellulose (CMC) 98 % of control | dose: 100.0 mg/kg/injection, schedule: Q01DX001 (ip), vehicle: carboxymethylcellulose (CMC) 110 % of control | dose: 200.0 mg/kg/injection, schedule: Q01DX001 (ip), vehicle: carboxymethylcellulose (CMC) 101 % of control | dose: 400.0 mg/kg/injection, schedule: Q01DX001 (ip), vehicle: carboxymethylcellulose (CMC) 98 % of control

COc1cc(C(=O)N/N=C/c2ccc(N(C)C)cc2)cc(OC)c1OC
inactive: [13] 102 % of control | [14] 102 % of control | [15] 89 % of control

COC(CN(C)CC(OC)OC)OC
inactive: [16] 107 % of control | [4] 97 % of control | [17] 96 % of control | [5] 112 % of control | dose: 400.0 mg/kg/injection, schedule: Q01DX009 (ip), vehicle: saline 98 % of control | [6] 105 % of control

O=C(O)CC[S-].[Ag+]
inactive: dose: 50.0 mg/kg/injection, schedule: Q04DX003 (ip), vehicle: other 94 % of control | dose: 75.0 mg/kg/injection, schedule: Q01DX009 (ip), vehicle: other 98 % of control | [10] 91 % of control | dose: 100.0 mg/kg/injection, schedule: Q04DX003 (ip), vehicle: other 89 % of control | dose: 150.0 mg/kg/injection, schedule: Q01DX009 (ip), vehicle: other 98 % of control | [11] 91 % of control | dose: 200.0 mg/kg/injection, schedule: Q04DX003 (ip), vehicle: other 91 % of control | dose: 300.0 mg/kg/injection, schedule: Q01DX009 (ip), vehicle: other 109 % of control

COc1ccc(C(O)CN)cc1 (stereo unspecified)
inactive: dose: 50.0 mg/kg/injection, schedule: Q01DX009 (ip), vehicle: saline 93 % of control | [16] 102 % of control | [4] 105 % of control | [17] 95 % of control and 102 % of control | [5] 103 % of control

CCCC(=O)CC(=O)CC(C)C
inactive: dose: 50.0 mg/kg/injection, schedule: Q01DX001 (ip), vehicle: saline 100 % of control | [1] 94 % of control | [2] 107 % of control | [3] 94 % of control

CCCCCCCCCCCCN1C(C)=CS/C1=C\C=C\c1scc(C)[n+]1CCCCCCCCCCCC
inactive: dose: 0.78 mg/kg/injection, schedule: Q01DX009 (ip), vehicle: saline with Tween-80 103 % of control | dose: 1.56 mg/kg/injection, schedule: Q01DX009 (ip), vehicle: saline with Tween-80 117 % of control | dose: 6.25 mg/kg/injection, schedule: Q01DX009 (ip), vehicle: saline with Tween-80 90 % of control

Oc1ccccc1/C=N\Nc1ccccc1
inactive: [4] 100 % of control | [5] 95 % of control | [6] 103 % of control

OCC(O)C1OC(c2ccccc2)OC1C(O)CO (stereo unspecified)
inactive: [4] 105 % of control | [5] 92 % of control | [6] 99 % of control

CCCCCCCCCCCCCCCCCC(=O)NCCS
inactive: dose: 25.0 mg/kg/injection, schedule: Q04DX002 (ip), vehicle: saline with Tween-80 101 % of control | dose: 50.0 mg/kg/injection, schedule: Q04DX002 (ip), vehicle: saline with Tween-80 89 % of control | dose: 100.0 mg/kg/injection, schedule: Q04DX002 (ip), vehicle: saline with Tween-80 104 % of control

Nc1ccc(N=Nc2cc(Cl)ccc2Cl)c(N)n1
inactive: [9] 103 % of control | [10] 86 % of control | [11] 92 % of control | [12] 92 % of control

CC(C)(C)CC(C)(C)c1ccc(OCCOc2ccccc2N)cc1
inactive: [13] 94 % of control | [14] 95 % of control | [15] 97 % of control

C/C(CCCCl)=N/NC(N)=S
inactive: dose: 6.25 mg/kg/injection, schedule: Q01DX009 (ip), vehicle: saline 98 % of control | dose: 6.25 mg/kg/injection, schedule: Q04DX003 (ip), vehicle: saline with Tween-80 98 % of control | dose: 12.5 mg/kg/injection, schedule: Q01DX009 (ip), vehicle: saline 107 % of control | dose: 12.5 mg/kg/injection, schedule: Q04DX003 (ip), vehicle: saline with Tween-80 92 % of control | dose: 25.0 mg/kg/injection, schedule: Q04DX003 (ip), vehicle: saline with Tween-80 90 % of control | dose: 100.0 mg/kg/injection, schedule: Q01DX001 (ip), vehicle: acetone 100 % of control | dose: 200.0 mg/kg/injection, schedule: Q01DX001 (ip), vehicle: acetone 90 % of control

c1ccc(-c2nn(-c3ccccc3)[n+](-c3ccccc3-c3ccccc3)n2)cc1
inactive: dose: 4.0 mg/kg/injection, schedule: Q01DX015 (ip), vehicle: carboxymethylcellulose (CMC) 98 % of control | dose: 8.0 mg/kg/injection, schedule: Q01DX015 (ip), vehicle: carboxymethylcellulose (CMC) 93 % of control | dose: 16.0 mg/kg/injection, schedule: Q01DX015 (ip), vehicle: carboxymethylcellulose (CMC) 94 % of control
